This is an account of results in patent US20230115945A1, “AMINOPYRIMIDINE COMPOUNDS” (TYRA BIOSCIENCES, INC., priority 2019, published 2023).

In one assay the target is T1, FGFR1 (Homo sapiens, UniProt P11362).
T1 construct: made in house; host or cells: E. coli host derived from BL21, infected with T7 phage
As to the kind of experiment: Kinase binding assay (Kd), FGFR1. The following applies: 11-point 3-fold dilution, qPCR readout. In outline:
(§1)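 Competition binding: kinase-tagged T7 phage, ligand-coated streptavidin beads and an 11-point 3-fold compound series (0.9% DMSO final) were incubated 1 h at room temperature. Bead-bound kinase was eluted and quantified by qPCR. Kd was fitted to the Hill equation with slope fixed at −1.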

A further assay concerns the target T2, FGFR2 (Homo sapiens, UniProt P21802).
T2 construct: made in house; host or cells: E. coli host derived from BL21, infected with T7 phage
Kind of assay: Kinase binding assay (Kd), FGFR2. As to conditions: 11-point 3-fold dilution, qPCR readout. In outline:
as §1
On the technique in general: Real-time PCR tracks product formation cycle by cycle.

Another assay concerns the target T3, FGFR3 (Homo sapiens, UniProt P22607).
T3 construct: made in house; host or cells: E. coli host derived from BL21, infected with T7 phage
As to the kind of experiment: Kinase binding assay (Kd), FGFR3. The following applies: 11-point 3-fold dilution, qPCR readout. In outline:
as §1

The next assay concerns the target T4, FGFR3 (V555M) (Homo sapiens, UniProt P22607, V555M).
T4 construct: made in house; host or cells: E. coli host derived from BL21, infected with T7 phage
Kind of assay: Kinase binding assay (Kd), FGFR3 (V555M). As to conditions: 11-point 3-fold dilution, qPCR readout. In short, it runs like this:
as §1

In another assay the target is T5, FGFR4 (Homo sapiens, UniProt P22455).
T5 construct: made in house; host or cells: E. coli host derived from BL21, infected with T7 phage
Kind of assay: Kinase binding assay (Kd), FGFR4. The following applies: 11-point 3-fold dilution, qPCR readout. In outline: as §1

The target of assay [1] is T6, FGFR3-BAIAP2L1 Ba/F3 cells (Homo sapiens, UniProt P22607).
T6 construct: Ba/F3 FGFR3; FGFR3--BAIAP2L1 fusion; Advanced Cellular Dynamics, (Seattle, WA); fused on or other part: Q9UHR4 (BAR/IMD domain-containing adapter protein 2-like 1)
As to the kind of experiment: Ba/F3 cell viability assay, FGFR3. The format is cell-based. As to conditions: FGFR3-BAIAP2L1 fusion Ba/F3, 48 hours, Cell Titer-Glo 2.0; read-out: Ba/F3 Cells FGFR3 (IC50 nM). From the text: (§2) Experimental Purpose: Recombinant kinase fusions are transduced into parental Ba/F3, which becomes dependent upon this constitutive kinase activity for IL3-independent survival. Inhibition of kinase activity leads to cell death, which is monitored using CellTiter-Glo® 2.0 (Promega) which measures intracellular ATP concentration that in turn serves as a marker for viability. FGFR1-BCR Ba/F3 and FGFR3-BAIAP2L1 Ba/F3 were obtained from Advanced Cellular Dynamics (Seattle, Wash.)
(§3) Cell Viability Assay Procedure: Cell Titer-Glo® 2.0 Luminescent cell viability assay reagent was purchased from Promega (Madison, Wis.). FGFR1-BCR Ba/F3 and FGFR3-BAIAP2L1 Ba/F3 cells were cultured in RPMI1640 media supplemented with 10% fetal bovine serum. Cultures were maintained at 37° C. in a humidified atmosphere of 5% CO2 and 95% air.
(§4) Cells were plated in 96-well clear bottom/white plates (Corning #3903) at 10,000 cells/well in 100 μl of media, incubated overnight. The next day, test compound DMSO stock solutions were made at 10 mM and 2 μM final concentration. Compounds were then added to cells in a 9-dose, 10-fold dilution series starting at 30 μM with an HP 300e Digital Dispenser (each dose was applied in triplicate). DMSO was backfilled to each well up to 301 nL total volume of test compound+DMSO, and a total of 301 nL DMSO was added to a control/no test compound well in triplicate. The cells in cell culture plates were incubated with the compounds at 37° C. and 5% CO2 for 48 hours. Then 50 μl of Cell Titer Glo 2.0 reagent was added to each well of the cell culture plates. The contents were covered from light and mixed on an orbital shaker at room temperature for 10 min. Luminescence was recorded by a Synergy H1 Microplate Reader (Biotek, Winooski, Vt.). Cells were assessed as a percentage of DMSO only treated control cells. Curves were plotted and IC50 values were calculated using the GraphPad Prism 8 program based on a sigmoidal dose-response equation (4 parameter).

A further assay deals with T7, FGFR1-BCR Ba/F3 cells (Homo sapiens, UniProt P11362).
T7 construct: Ba/F3 FGFR1; FGFR1-BCR; Advanced Cellular Dynamics, (Seattle, WA); fused on or other part: P11274 (Breakpoint cluster region protein)
Kind of assay: Ba/F3 cell viability assay, FGFR1. As to conditions: FGFR1-BCR Ba/F3, 48 hours, Cell Titer-Glo 2.0; read-out: Ba/F3 Cells FGFR1 (IC50 nM). The format is cell-based.
Description: as §2, §3, §4

In assay [2] the test system is SNU-16 cells (Gastric Carcinoma, FGFR2 amplification). Kind of assay: Cancer cell line cell viability assay, SNU-16. The format is cell-based. The following applies: Homo sapiens, 72 hours, Cell Titer-Glo 2.0, read-out: Cancer Cell Viability Assays SNU-16 (IC50 nM). The text has this:
(§5) [table] To detect the change of intracellular ATP by Cell Titer-Glo® and to evaluate the inhibitory effect of the compounds on cancer cell lines by determining the in vitro IC50 value of the compounds. Cell Titer-Glo® 2.0 Luminescent cell viability assay reagent was purchased from Promega (Madison, Wis.). RT112/84, SNU-16, and KG-1 cell lines were purchased from American Type Culture Collection (Manassas, Va.). UM-UC-14 cell line was purchased from Sigma (St. Louis, Mo.). RT112/84, UM-UC-14, SNU-16, and KG-1 cells were cultured in RPMI1640 media supplemented with 10% fetal bovine serum. Cultures were maintained at 37° C. in a humidified atmosphere of 5% CO2 and 95% air. Cell Viability Assay Procedure: Cells were plated in 96-well clear bottom/white plates (Corning #3903) at 10,000 cells/well in 100 μl of media, incubated overnight. The next day, test compound DMSO stock solutions were made at 10 mM and 2 μM final concentration. Compounds were then added to cells in a 9-dose, […] dilution series starting at 30 μM with an HP 300e Digital Dispenser (each dose was applied in triplicate). DMSO was backfilled to each well up to 301 nL total volume of test compound+DMSO, and a total of 301 nL DMSO was added to a control/no test compound well in triplicate. The cells in cell culture plates were incubated with the compounds at 37° C. and 5% CO2 for 72 hours. Then 50 μl of Cell Titer Glo 2.0 reagent was added to each well of the cell culture plates. The contents were covered from light and mixed on an orbital shaker at room temperature for 10 min. Luminescence was recorded by a Synergy H1 Microplate Reader (Biotek, Winooski, Vt.). Cells were assessed as a percentage of DMSO only treated control cells. Curves were plotted and IC50 values were calculated using the GraphPad Prism 8 program based on a sigmoidal dose-response equation (4 parameter).
A general note: ATP-based viability assays read luminescence as a measure of living cells.

The test system of assay [3] is RT112/84 cells (Bladder Cancer, FGFR3-TACC3 fusion). As to the kind of experiment: Cancer cell line cell viability assay, RT112/84. The following applies: Homo sapiens, 72 hours, Cell Titer-Glo 2.0, read-out: Cancer Cell Viability Assays RT112/84 (IC50 nM). The format is cell-based.
Description: as §5

As usually defined, the Kd is the constant that tells how readily two partners part at equilibrium. The low end stands for a tighter complex, the high end for a looser complex.

T3 sequence (P22607 23-806): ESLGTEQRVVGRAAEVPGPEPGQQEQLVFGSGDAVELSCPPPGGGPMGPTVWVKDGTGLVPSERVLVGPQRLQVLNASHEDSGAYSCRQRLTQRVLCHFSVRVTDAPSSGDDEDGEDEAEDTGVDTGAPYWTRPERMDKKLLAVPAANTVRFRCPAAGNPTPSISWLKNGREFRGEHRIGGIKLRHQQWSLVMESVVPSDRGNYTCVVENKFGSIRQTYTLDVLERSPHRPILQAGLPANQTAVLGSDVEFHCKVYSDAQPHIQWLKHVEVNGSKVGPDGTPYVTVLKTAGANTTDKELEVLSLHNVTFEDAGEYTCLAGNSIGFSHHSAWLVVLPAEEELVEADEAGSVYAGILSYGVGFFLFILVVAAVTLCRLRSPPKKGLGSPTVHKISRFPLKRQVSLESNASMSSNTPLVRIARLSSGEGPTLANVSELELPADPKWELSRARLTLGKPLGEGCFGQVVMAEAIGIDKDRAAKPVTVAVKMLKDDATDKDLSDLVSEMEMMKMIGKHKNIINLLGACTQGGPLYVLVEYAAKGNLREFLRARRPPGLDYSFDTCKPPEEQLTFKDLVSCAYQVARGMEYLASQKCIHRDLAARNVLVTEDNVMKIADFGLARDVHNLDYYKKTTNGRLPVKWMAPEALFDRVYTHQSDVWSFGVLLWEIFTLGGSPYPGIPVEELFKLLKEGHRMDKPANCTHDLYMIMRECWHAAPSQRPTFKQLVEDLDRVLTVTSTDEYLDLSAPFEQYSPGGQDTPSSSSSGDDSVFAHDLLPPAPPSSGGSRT
T5 sequence (P22455 22-802): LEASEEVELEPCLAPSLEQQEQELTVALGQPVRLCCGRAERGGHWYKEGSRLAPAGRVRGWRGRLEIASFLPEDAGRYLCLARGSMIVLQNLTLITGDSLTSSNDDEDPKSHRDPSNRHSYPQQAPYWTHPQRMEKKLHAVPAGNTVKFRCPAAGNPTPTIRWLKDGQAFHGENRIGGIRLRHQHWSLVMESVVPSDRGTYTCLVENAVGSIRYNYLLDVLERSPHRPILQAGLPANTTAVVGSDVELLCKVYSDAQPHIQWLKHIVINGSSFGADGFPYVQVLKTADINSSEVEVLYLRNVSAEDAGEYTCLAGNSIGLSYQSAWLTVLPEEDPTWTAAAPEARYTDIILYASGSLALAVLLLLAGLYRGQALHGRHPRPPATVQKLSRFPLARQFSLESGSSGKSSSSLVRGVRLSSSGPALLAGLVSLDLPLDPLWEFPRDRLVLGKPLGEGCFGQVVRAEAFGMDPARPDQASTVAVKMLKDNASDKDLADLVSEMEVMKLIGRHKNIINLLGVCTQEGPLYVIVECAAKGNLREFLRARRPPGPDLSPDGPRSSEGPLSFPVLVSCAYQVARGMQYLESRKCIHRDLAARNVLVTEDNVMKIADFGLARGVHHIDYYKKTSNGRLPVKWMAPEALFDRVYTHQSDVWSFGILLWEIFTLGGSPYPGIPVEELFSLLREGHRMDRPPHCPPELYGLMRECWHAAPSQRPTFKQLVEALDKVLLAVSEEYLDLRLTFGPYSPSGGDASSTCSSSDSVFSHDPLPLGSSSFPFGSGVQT
T4 sequence (P22607 23-806 V555M): as the sequence (P22607 23-806) above, with V533M counted along it
T6 sequence (P22607 whole entry, change not shown, the tested form may be a part): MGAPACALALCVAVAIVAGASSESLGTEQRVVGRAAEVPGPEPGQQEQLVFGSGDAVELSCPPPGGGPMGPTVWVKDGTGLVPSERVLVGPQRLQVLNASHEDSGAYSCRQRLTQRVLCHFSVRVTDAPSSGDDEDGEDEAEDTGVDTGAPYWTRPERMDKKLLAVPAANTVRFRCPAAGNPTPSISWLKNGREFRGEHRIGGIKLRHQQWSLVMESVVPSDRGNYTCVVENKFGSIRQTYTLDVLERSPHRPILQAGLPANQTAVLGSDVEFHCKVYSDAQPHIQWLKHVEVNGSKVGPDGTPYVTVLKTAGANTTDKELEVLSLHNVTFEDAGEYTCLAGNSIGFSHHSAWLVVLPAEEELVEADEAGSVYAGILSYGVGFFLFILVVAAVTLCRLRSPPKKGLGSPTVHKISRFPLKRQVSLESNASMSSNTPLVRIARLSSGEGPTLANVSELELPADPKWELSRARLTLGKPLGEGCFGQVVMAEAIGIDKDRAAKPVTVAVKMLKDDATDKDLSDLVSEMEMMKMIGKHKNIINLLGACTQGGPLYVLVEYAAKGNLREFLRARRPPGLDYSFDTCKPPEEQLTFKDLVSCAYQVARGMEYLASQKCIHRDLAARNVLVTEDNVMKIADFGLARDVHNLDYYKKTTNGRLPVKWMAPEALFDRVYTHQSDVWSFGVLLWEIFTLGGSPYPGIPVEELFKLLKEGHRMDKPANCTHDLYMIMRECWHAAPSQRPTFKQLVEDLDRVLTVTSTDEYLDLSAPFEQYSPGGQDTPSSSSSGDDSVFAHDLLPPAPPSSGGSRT
T7 sequence (P11362 whole entry, change not shown, the tested form may be a part): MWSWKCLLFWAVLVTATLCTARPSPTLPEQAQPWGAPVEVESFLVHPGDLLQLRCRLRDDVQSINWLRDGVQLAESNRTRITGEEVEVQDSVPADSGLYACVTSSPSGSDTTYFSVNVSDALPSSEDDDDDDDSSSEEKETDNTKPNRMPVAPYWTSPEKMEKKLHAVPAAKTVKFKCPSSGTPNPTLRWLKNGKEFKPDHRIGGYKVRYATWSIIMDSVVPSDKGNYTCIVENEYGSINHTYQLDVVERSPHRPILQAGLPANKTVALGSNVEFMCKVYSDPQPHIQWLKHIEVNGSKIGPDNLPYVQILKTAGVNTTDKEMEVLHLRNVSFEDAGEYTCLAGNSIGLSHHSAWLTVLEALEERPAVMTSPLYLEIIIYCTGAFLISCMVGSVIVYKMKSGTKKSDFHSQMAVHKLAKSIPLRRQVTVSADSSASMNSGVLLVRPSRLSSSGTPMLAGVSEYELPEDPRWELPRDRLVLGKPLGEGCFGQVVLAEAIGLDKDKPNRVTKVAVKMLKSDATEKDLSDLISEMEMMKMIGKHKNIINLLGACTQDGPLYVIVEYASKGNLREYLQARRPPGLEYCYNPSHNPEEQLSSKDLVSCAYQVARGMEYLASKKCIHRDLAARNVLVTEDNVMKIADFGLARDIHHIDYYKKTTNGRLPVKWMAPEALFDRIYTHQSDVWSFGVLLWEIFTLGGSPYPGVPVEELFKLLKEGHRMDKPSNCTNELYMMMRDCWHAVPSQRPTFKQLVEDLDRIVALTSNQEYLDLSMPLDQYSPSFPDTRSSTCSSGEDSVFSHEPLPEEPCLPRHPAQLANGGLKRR
T1 sequence (P11362 22-822): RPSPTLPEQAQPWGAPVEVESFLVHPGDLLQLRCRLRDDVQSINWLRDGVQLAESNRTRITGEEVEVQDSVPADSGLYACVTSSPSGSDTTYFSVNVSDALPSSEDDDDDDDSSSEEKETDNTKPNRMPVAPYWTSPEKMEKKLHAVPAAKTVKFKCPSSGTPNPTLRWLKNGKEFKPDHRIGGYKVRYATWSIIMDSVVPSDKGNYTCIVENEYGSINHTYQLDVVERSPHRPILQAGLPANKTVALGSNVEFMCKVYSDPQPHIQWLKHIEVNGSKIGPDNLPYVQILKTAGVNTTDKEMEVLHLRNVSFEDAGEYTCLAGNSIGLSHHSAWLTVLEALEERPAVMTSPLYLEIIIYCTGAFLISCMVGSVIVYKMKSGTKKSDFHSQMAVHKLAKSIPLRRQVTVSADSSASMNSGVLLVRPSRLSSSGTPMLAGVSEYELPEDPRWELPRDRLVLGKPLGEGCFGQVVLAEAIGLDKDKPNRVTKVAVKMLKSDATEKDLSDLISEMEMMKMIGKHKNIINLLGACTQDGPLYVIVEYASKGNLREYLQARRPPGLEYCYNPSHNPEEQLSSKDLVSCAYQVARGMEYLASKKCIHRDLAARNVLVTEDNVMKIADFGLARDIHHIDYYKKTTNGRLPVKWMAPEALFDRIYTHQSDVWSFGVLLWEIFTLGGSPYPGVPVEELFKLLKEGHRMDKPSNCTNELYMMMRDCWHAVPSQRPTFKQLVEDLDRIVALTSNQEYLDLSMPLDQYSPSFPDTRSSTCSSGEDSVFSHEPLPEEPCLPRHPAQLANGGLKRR
T2 sequence (P21802 22-821): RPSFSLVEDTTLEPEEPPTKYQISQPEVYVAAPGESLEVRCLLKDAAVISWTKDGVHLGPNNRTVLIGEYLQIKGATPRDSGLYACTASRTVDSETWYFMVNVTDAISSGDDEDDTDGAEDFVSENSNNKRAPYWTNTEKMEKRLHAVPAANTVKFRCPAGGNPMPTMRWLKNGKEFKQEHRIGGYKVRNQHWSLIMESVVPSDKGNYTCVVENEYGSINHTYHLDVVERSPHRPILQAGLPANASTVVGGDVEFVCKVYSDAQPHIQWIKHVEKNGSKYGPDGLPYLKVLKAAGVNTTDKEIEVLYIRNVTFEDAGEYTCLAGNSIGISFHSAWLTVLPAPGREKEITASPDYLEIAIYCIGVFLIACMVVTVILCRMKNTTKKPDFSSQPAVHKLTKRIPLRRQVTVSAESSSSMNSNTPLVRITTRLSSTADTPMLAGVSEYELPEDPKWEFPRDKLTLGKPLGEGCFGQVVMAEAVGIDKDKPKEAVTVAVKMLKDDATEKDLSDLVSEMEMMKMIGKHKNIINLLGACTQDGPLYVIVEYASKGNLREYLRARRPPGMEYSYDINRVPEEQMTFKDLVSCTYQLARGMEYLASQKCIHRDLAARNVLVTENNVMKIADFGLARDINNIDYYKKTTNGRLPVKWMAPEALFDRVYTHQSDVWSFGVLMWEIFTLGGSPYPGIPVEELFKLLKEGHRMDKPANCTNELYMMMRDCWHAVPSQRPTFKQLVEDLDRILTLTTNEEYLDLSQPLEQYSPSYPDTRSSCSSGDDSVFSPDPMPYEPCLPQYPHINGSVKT

For the compound `Cc1cnc(Nc2ccc(N=S(C)(C)=O)cc2)nc1-c1c[nH]c2ccccc12` [Example 11, N-[4-[[dimethyl(oxo)-λ^6-sulfanylidene]amino]phenyl]-4-(1H-indol-3-yl)-5-methyl-pyrimidin-2-amine], the Kd turned out to be 350 nM on FGFR1; 3300 nM on FGFR2; 370 nM on FGFR3; 57 nM at FGFR3 (V555M); 57 nM on FGFR4. In addition, the GI50 in assay [1] is 15 nM; on FGFR1-BCR Ba/F3 cells, 115 nM. Moreover, the IC50 was 108 nM in [2] and 153 nM in [3].

For the compound `COc1cc(Nc2ncc(C)c(-c3c[nH]c4ccccc34)n2)ccc1N=S(C)(C)=O` [Example 26, N-[4-[[dimethyl(oxo)-λ^6-sulfanylidene]amino]-3-methoxy-phenyl]-4-(1H-indol-3-yl)-5-methyl-pyrimidin-2-amine], the Kd at FGFR1 was 42 nM; on FGFR2, 2 nM; on FGFR3 it was 10 nM; on FGFR3 (V555M) it was 1 nM; on FGFR4, 91 nM. For the same compound, the GI50 is 15 nM in assay [1] and 75 nM on FGFR1-BCR Ba/F3 cells. Besides, the IC50 in [2] was 173 nM; in [3], 111 nM.

For `Cc1cnc(Nc2ccc(N=S(C)(C)=O)c(OCCN3CCOCC3)c2)nc1-c1c[nH]c2ccccc12` [Example 27, N-[4-[[dimethyl(oxo)-λ^6-sulfanylidene]amino]-3-(2-morpholinoethoxy)phenyl]-4-(1H-indol-3-yl)-5-methyl-pyrimidin-2-amine], the Kd on FGFR1 turned out to be 2 nM; at FGFR2 it was 1 nM; at FGFR3, 2 nM; on FGFR4, 110 nM. Moreover, the GI50 on FGFR1-BCR Ba/F3 cells was 11 nM. For the same compound, the figures for the IC50 in assay [2] and in assay [3] were 16 nM and 43 nM, respectively.

Consider `COc1cc(Nc2ncc(C)c(-c3c[nH]c4c(C)cccc34)n2)ccc1N=S(C)(C)=O` [Example 31, N-[4-[[dimethyl(oxo)-λ^6-sulfanylidene]amino]-3-methoxy-phenyl]-5-methyl-4-(7-methyl-1H-indol-3-yl)pyrimidin-2-amine], for which the Kd is 1 nM on FGFR1; 3 nM on FGFR2; 5 nM at FGFR3; 0.5 nM at FGFR3 (V555M); 62 nM at FGFR4. Also, the GI50 in assay [1] stood at 40 nM; at FGFR1-BCR Ba/F3 cells it was 2 nM. Further, the IC50 in assay [2] was 5 nM; in [3], 23 nM.

On to `Cc1[nH]c2ccccc2c1-c1nc(Nc2ccc(S(C)(=N)=O)cc2)ncc1Cl` (stereo not drawn) [Example 56, 5-Chloro-4-(2-methyl-1H-indol-3-yl)-N-[4-(methylsulfonimidoyl)phenyl]-pyrimidin-2-amine], for which the Kd at FGFR1 turned out to be 64 nM; on FGFR2, 34 nM; on FGFR3, 49 nM; at FGFR3 (V555M), 3 nM; on FGFR4 it was 740 nM. The GI50 in [1] turned out to be 273 nM. The values for the IC50 in assay [2] and in [3] were 857 nM and 377 nM, respectively.

In the case of `Cc1cnc(Nc2ccc(S(C)(=N)=O)cc2)nc1-c1c(C)[nH]c2ccccc12` (stereo not drawn) [Example 57, 5-Methyl-4-(2-methyl-1H-indol-3-yl)-N-[4-(methylsulfonimidoyl)phenyl]-pyrimidin-2-amine], the Kd at FGFR1 was 50 nM; on FGFR2 it was 43 nM; at FGFR3, 53 nM; on FGFR3 (V555M), 6 nM; on FGFR4 it was 680 nM. Besides, the GI50 in assay [1] is 431 nM. Also, the IC50 was determined as 803 nM in assay [2] and 610 nM in assay [3].

Consider `C=CC(=O)Nc1cc2ccn(-c3nc(Nc4ccc(N=S(C)(C)=O)cc4)ncc3Cl)c2cc1C` [Example 85, N-[1-[5-chloro-2-[4-[[dimethyl(oxo)-λ^6-sulfanylidene]amino]anilino]-pyrimidin-4-yl]-6-methyl-indol-5-yl]prop-2-enamide], for which the Kd at FGFR1 was 330 nM; at FGFR2 it was 89 nM; on FGFR3, 180 nM; at FGFR3 (V555M), 16 nM; at FGFR4 it was 2300 nM. In addition, the GI50 in assay [1] came out at 459 nM; on FGFR1-BCR Ba/F3 cells it was 171 nM.

For the compound `C=CC(=O)Nc1ccc2c(-c3nc(Nc4ccc(S(=N)(=O)C5CC5)cc4)ncc3Cl)c[nH]c2c1` (stereo not drawn) [Example 90, N-[3-[5-Chloro-2-[4-(cyclopropylsulfonimidoyl)anilino]pyrimidin-4-yl]-1H-indol-6-yl]prop-2-enamide], the Kd on FGFR1 came to 47 nM; on FGFR2, 59 nM; on FGFR3, 41 nM; at FGFR3 (V555M) it was 4 nM; on FGFR4, 360 nM. For the same compound, the IC50 in assay [2] stood at 71 nM; in assay [3], 81 nM.

For `C=CC(=O)Nc1cccc2c(-c3nc(Nc4ccc(S(C)(=N)=O)cc4)ncc3Cl)c[nH]c12` (stereo not drawn) [Example 91, N-[3-[5-chloro-2-[4-(methylsulfonimidoyl)anilino]pyrimidin-4-yl]-1H-indol-7-yl]prop-2-enamide], the Kd at FGFR1 came to 19 nM; on FGFR2, 24 nM; on FGFR3, 48 nM; at FGFR3 (V555M), 2 nM; at FGFR4, 130 nM. Further, the IC50 in assay [2] was 19 nM; in assay [3], 48 nM.

For `C=CC(=O)Nc1ccc2c(-c3nc(Nc4ccc(N=S(C)(C)=O)c(F)c4)ncc3Cl)cn(C)c2c1` [Example 93, N-[3-[5-Chloro-2-[4-[[dimethyl(oxo)-λ^6-sulfanylidene]amino]-3-fluoro-anilino]pyrimidin-4-yl]-1-methyl-indol-6-yl]prop-2-enamide], the figures for the GI50 (in assay [1]; at FGFR1-BCR Ba/F3 cells) were 14 nM and 1 nM, respectively.

In the case of `C=CC(=O)Nc1ccc2c(-c3nc(Nc4ccc(N=S(C)(C)=O)nc4)ncc3Cl)cn(C)c2c1` [Example 94, N-[3-[5-Chloro-2-[[6-[[dimethyl(oxo)-λ^6-sulfanylidene]amino]-3-pyridyl]amino]pyrimidin-4-yl]-1-methyl-indol-6-yl]prop-2-enamide], the GI50 came to 23 nM in assay [1] and 4 nM on FGFR1-BCR Ba/F3 cells.
